According to patent US20140322278A1, “Modulation of Tissue Transglutaminase Activation in Disease” (The Board of Trustees of the Leland Stanford Junior …, priority 2011, published 2014):
Entries after “also recorded” stand apart in the source; their conditions may differ.

Tests used:
[1] = test system: TG2 activation in T84 monolayers; experiment: IFN-γ induced TG2 activation in T84 monolayers, 5BP incorporation ELISA; assay type: cell-based, human; details: IFN-γ up to 1000 U/mL, 25 μM ERW1041E
Description: FIG. 2. Dose and time dependence of TG2 activation in response to IFN-γ treatments of T84 monolayers measured in a quantitative enzyme linked immunosorbent type assay. T84 monolayers were treated for 1 to 72 hrs at 0-1000 U/mL IFN-γ with or without TG2 inhibition using 25 μM ERW1041E. TG2 activation was quantified by the amount of 5BP crosslinked to native proteins in the T84 cells as measured by tetramethylbenzidine turnover via streptavidin-HRP labeling. 5BP incorporation is dependent on IFN-γ exposure concentration. […] Data reported as mean+/−standard deviation.
FIG. 3. […] (B) Dose and time dependence of TG2 activation in response to IFN-γ treatments of T84 monolayers measured in a quantitative enzyme linked immunosorbent type assay. […] TG2 activation was quantified by the amount of 5BP crosslinked to native proteins in the T84 cells as measured by tetramethylbenzidine turnover via streptavidin-HRP labeling. […]
In addition to increasing the paracellular permeability of antigenic gluten peptides, we sought to determine if IFN-γ could activate TG2 in the extracellular matrix of mature T84 monolayers. […] To quantify the extent to which IFN-γ activates TG2 in the T84 model system, an enzyme linked immunosorbent assay (ELISA) was developed, using streptavidin conjugated to horseradish peroxidase. […]

[2] = test system: TG2 activation in T84 monolayers; experiment: Thioredoxin-induced TG2 activation in T84 monolayers, 5BP incorporation ELISA; assay type: cell-based, human
Description: (§1) FIG. 7. Dose dependence of TG2 activation in response to recombinant human thioredoxin treatments of T84 and WI-38 monolayers measured in a quantitative enzyme linked immunosorbent type assay. Cellular monolayers were treated for 3 hrs at 0-10 μM thioredoxin with or without TG2 inhibition using 25 μM ERW1041E or with or without using 0-50 μM thioredoxin inhibitor PX-12. TG2 activation was quantified by the amount of 5BP crosslinked to native proteins in the extracellular matrix of cultured monolayers as measured by tetramethylbenzidine turnover via streptavidin-HRP labeling. (A) and (B) Illustrate the dependence of 5BP incorporation on thioredoxin exposure concentration in T84 and WI-38 cells, respectively. […] (C) and (D) Illustrate the dependence of 5BP incorporation on the ability of thioredoxin to activate TG2. TG2 activation was highest for control experiments with 0 μM PX-12. The amount of PX-12 required to reduce the 5BP incorporation in half at saturating concentrations of 3 μM thioredoxin in T84 and WI-38 cultures was 11 μM and 5 μM PX-12, respectively. […] Data reported as mean+/−standard deviation.
(§2) To test whether recombinant human thioredoxin could directly activate TG2 in cell culture, we used T84 and WI-38 monolayers in similar assays as described herein. T84 and WI-38 cells were grown into mature monolayers at which point varying amounts of pre-reduced thioredoxin were added to the culture medium along with 5BP and/or small molecule inhibitors, such as the TG2 inhibitor, ERW1041E, or the thioredoxin inhibitor, PX-12. 5BP incorporated into the extracellular matrix of cultured monolayers via activated TG2 was then quantified.

[3] = test system: TG2 activation in WI-38 monolayers; experiment: Thioredoxin-induced TG2 activation in WI-38 monolayers, 5BP incorporation ELISA; assay type: cell-based, human
Description: as §1, §2

[4] = molecular target: T1, human TG2 (Homo sapiens, UniProt P21980); experiment: TG2 inhibition kinetics (kinh/Ki); assay type: biochemical
T1 sequence (P21980 1-687): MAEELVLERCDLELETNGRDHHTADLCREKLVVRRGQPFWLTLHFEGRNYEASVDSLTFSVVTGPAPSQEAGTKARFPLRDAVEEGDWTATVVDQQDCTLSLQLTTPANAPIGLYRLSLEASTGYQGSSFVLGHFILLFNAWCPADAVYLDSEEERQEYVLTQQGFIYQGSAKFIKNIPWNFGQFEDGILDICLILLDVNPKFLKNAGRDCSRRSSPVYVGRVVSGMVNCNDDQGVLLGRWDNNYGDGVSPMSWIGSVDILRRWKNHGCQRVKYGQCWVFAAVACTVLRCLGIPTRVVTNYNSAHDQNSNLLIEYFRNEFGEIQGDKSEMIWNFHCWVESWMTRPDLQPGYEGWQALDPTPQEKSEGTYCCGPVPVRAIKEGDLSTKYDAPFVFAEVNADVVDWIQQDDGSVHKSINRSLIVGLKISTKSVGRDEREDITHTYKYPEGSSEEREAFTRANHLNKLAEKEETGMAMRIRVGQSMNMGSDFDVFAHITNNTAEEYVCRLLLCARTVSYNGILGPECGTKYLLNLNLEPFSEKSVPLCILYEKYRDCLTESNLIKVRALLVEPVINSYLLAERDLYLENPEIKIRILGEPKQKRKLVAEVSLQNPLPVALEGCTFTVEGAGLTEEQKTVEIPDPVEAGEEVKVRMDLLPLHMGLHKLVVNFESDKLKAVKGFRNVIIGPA

[5] = molecular target: T2, human transglutaminase 1 (TG1) (Homo sapiens, UniProt P22735); experiment: TG1 inhibition kinetics (kinh/Ki); assay type: biochemical
T2 sequence (P22735 1-817): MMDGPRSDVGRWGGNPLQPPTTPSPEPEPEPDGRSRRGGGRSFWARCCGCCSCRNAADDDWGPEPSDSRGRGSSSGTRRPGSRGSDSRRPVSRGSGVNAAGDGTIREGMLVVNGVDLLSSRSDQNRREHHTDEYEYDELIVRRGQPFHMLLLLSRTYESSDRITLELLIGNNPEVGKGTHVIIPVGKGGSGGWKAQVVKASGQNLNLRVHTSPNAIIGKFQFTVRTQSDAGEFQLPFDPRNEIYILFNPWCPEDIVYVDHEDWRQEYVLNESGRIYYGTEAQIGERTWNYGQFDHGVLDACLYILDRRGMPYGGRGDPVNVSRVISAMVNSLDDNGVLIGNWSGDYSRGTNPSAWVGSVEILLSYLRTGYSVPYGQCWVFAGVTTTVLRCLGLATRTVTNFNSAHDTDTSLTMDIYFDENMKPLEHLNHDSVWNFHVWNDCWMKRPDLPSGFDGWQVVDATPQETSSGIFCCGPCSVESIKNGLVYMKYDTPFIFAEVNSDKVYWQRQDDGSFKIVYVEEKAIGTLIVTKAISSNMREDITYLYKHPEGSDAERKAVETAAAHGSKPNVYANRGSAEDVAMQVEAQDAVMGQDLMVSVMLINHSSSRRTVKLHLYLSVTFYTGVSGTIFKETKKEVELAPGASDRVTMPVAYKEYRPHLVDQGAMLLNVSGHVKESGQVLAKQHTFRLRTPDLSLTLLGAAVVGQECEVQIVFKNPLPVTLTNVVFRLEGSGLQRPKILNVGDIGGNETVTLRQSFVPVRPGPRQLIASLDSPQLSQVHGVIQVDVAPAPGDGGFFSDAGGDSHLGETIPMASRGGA

[6] = cited from earlier work
[7] = molecular target: T3, human thioredoxin (Homo sapiens, UniProt P10599); experiment: Inhibition of human thioredoxin by disulfide analogs of PX-12 (kinh/Ki); assay type: biochemical
T3 construct: made in house; host or cells: E. coli
T3 sequence (P10599 1-105): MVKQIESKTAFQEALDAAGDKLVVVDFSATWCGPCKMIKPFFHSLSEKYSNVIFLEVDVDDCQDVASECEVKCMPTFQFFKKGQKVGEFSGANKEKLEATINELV

[8] = Reactivity of disulfide inhibitors towards dithiothreitol
[9] = molecular target: T4, Trx (Homo sapiens, UniProt P10599); experiment: Cell-free assay for Trx-mediated activation of oxidized TG2; assay type: biochemical; details: dose-dependent; 100 μM PX-12
T4 construct: made in house; host or cells: E. coli (Trx)
T4 sequence (P10599 1-105): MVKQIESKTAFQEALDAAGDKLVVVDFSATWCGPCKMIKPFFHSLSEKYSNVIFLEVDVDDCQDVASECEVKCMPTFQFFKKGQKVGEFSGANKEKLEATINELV
Description: (§3) To test our hypothesis, we measured the kinetics of Trx-mediated activation of oxidized TG2. Reduced forms of Trx from E. coli and human were prepared by overexpression in and purification from recombinant E. coli. Dithiothreitol (DTT) was used as a reference small molecule reducing agent. […] We therefore quantified the specificity of human Trx for human oxidized TG2 by measuring the Michaelis-Menten parameters for Trx-mediated reduction of oxidized TG2. Insulin, a well-characterized extracellular substrate of Trx, was used as a reference, and human thioredoxin reductase was used as a catalyst to achieve turnover under steady-state conditions. […] Based on these parameters, one can estimate that as little as 2.5 nM Trx in the extracellular matrix should be able to activate 10% of the local oxidized TG2 within 30 min.
The small molecule PX-12 (1,1-methylpropyl 2-imidazolyl disulfide) inhibits Trx by oxidizing its active site Cys.

[10] = test system: Insulin; experiment: Kinetics of Trx-mediated reduction of insulin (reference substrate); assay type: biochemical; details: human thioredoxin reductase as catalyst, steady state
Description: as §3

[11] = thioredoxin 0-10 μM, 3 hrs, 25 μM ERW1041E
[12] = Homo sapiens, saturating 3 μM thioredoxin, read-out: amount of PX-12 required to reduce the 5BP incorporation in half

Molecule: O=C(NC[C@@H]1CC(Br)=NO1)[C@@H]1CCCN1C(=O)OCc1cnc2ccccc2c1 [compound 2]
- TG2 activation (5BP incorporation) [1]: completely blocked 5BP incorporation; also recorded: reduced to basal levels
- TG2 activation (5BP incorporation) in response to thioredoxin [2, 11]: completely negates; also recorded: reduced to basal levels
- TG2 activation (5BP incorporation) in response to thioredoxin [3, 11]: completely negates; also recorded: reduced to basal levels
- kinh/Ki TG2 [4]: 283.15 M⁻¹ s⁻¹
- kinh/Ki TG1 [5]: 220.37 M⁻¹ s⁻¹

Molecule: CCC(C)SSc1ncc[nH]1 (stereo not shown) [compound 1, 1-methylpropyl 2-imidazolyl disulfide]
- adverse effects in humans ([6]; high doses administered to humans): without any serious adverse effects
- toxicity due to the 2-butanethiol leaving group ([6]; previous human clinical studies): dose-limiting toxicity
- Trx kinh/Ki ([7]; human thioredoxin, bimolecular parameter estimating potency): 2670 M⁻¹ s⁻¹
- Trx/DTT ([7]; ratio of reactivity towards Trx relative to DTT (selectivity)): 15
- IC50 [2, 12]: 11 µM
- 5BP incorporation in response to thioredoxin ([2]; PX-12 0-50 μM): quantitatively reduced
- IC50 [3, 12]: 5 µM
- 5BP incorporation in response to thioredoxin ([3]; PX-12 0-50 μM): quantitatively reduced
- DTT k [8]: 180 M⁻¹ s⁻¹
- Trx-mediated activation of oxidized TG2 [9]: complete inactivation

B1: recombinant human Trx: reduced human thioredoxin, overexpressed in and purified from recombinant E. coli (protein, UniProt P10599 2-105, looked up)
Thioredoxin: VKQIESKTAFQEALDAAGDKLVVVDFSATWCGPCKMIKPFFHSLSEKYSNVIFLEVDVDDCQDVASECEVKCMPTFQFFKKGQKVGEFSGANKEKLEATINELV
modifications: reduced
notes: reduced human thioredoxin, overexpressed in and purified from recombinant E. coli
- Km [10]: 30 µM
